From patent publication US20240010684A1, “MASP INHIBITORY COMPOUNDS AND USES THEREOF” (BAYER AKTIENGESELLSCHAFT, priority 2020, published 2024)
pIC50: −log10 of the molar value. Where a SMILES comes first, the peptide text is derived from it. Bridges are numbered along the chain shown (N, C = ends). [ ]: non-standard residue; d: D form. Oic = O=C(O)[C@@H]1C[C@@H]2CCCC[C@@H]2N1; tBuAla = CC(C)(C)C[C@H](N)C(=O)O; Pen = CC(C)(S)[C@H](N)C(=O)O; Dap = NC[C@H](N)C(=O)O; Ahx = NCCCCCC(=O)O

Key:
[1] = biological target: human MASP1 (Homo sapiens (Human), UniProt P48740); test: Biochemical human MASP1 assay (FRET substrate); conditions: Average IC50; recombinant human MASP1; read-out: human MASP1 IC50
Chain of human MASP1 (P48740 other isoform, or with tags, fused parts or gaps): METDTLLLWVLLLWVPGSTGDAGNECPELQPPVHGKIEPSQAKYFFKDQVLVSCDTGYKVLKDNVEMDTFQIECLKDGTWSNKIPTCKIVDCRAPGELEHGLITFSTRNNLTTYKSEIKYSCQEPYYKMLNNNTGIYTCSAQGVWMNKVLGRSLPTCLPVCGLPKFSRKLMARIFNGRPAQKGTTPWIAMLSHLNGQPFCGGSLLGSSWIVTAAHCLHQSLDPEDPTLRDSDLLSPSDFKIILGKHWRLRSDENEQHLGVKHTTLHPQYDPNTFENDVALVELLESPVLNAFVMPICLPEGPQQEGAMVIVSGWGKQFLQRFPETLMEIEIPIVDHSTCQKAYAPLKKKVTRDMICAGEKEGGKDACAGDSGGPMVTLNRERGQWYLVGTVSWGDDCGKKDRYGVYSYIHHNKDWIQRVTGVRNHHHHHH
Outline: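 IC50 derived from % inhibition versus compound concentration, with fluorescence increase read at 320/420 nm after 60-120 min at 32 C. Enzyme: HEK293-secreted, His-tagged human MASP1 fragment 297-699 at 20 nM in HEPES pH 8,0 buffer with NaCl, CHAPS, glutathione; substrate ABZ-peptide-Lys(Dnp)-NH2 added as 20 μM solution.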

[2] = biological target: human MASP2 (Homo sapiens (Human), UniProt O00187); test: Biochemical human MASP2 assay (FRET substrate); conditions: Average IC50; recombinant human MASP2; read-out: human MASP2 IC50
Chain of human MASP2 (O00187 other isoform, or with tags, fused parts or gaps): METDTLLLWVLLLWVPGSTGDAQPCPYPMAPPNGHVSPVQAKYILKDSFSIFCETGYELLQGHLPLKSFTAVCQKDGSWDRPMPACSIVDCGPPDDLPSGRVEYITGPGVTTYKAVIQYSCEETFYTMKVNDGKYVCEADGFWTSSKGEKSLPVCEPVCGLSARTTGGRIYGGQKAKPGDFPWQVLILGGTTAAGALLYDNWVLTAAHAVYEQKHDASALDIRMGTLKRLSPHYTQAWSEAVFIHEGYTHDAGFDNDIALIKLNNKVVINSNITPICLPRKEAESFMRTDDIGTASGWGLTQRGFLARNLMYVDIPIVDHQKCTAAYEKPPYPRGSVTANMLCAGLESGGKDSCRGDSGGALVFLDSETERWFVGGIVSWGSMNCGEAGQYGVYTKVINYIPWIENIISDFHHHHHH
Outline: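 IC50 came from % inhibition across compound concentrations, with fluorescence (ex 340 nm, em 490 nm) read after 60-120 min at 32 C. Substrate was a DABCYL FRET peptide, added as a 60 μM solution, cleaved by HEK293-expressed, Ni-NTA-purified mature recombinant human MASP2.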

[3] = biological target: rat MASP2 (Rattus norvegicus (Rat), UniProt Q9JJS8); test: Biochemical rat MASP2 assay (FRET substrate); conditions: Average IC50; recombinant rat MASP2; read-out: rat MASP2 IC50
Chain of rat MASP2 (Q9JJS8 other isoform, or with tags, fused parts or gaps): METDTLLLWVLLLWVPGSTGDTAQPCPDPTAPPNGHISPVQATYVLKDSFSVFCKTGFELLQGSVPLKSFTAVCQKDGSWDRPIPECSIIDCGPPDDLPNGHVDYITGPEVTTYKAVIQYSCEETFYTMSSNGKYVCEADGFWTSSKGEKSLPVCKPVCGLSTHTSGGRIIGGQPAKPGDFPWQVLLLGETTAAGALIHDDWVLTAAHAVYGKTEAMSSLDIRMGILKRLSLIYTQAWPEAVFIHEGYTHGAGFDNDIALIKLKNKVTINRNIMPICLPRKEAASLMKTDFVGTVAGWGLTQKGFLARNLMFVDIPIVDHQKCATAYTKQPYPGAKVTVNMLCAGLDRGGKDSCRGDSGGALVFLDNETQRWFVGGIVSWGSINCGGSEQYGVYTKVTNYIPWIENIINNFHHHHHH
Text: The MASP1 or MASP2 expression vectors were transfected into the HEK293 (ATCC No. CRL-1573) cell line using Lipofectamine LTX® Reagent (Thermo-Fischer), as described by the manufacturer. […] The MASP1 and M[…] were purified from the conditioned media by affinity chromatography on Ni-NTA Superflow resin (Qiagen) as described by the manufacturer.

[4] = biological target: rat MASP1 (Rattus norvegicus (Rat), UniProt Q8CHN8); test: Biochemical rat MASP1 assay (FRET substrate); conditions: Average IC50; recombinant rat MASP1; read-out: rat MASP1 IC50
Chain of rat MASP1 (Q8CHN8 other isoform, or with tags, fused parts or gaps): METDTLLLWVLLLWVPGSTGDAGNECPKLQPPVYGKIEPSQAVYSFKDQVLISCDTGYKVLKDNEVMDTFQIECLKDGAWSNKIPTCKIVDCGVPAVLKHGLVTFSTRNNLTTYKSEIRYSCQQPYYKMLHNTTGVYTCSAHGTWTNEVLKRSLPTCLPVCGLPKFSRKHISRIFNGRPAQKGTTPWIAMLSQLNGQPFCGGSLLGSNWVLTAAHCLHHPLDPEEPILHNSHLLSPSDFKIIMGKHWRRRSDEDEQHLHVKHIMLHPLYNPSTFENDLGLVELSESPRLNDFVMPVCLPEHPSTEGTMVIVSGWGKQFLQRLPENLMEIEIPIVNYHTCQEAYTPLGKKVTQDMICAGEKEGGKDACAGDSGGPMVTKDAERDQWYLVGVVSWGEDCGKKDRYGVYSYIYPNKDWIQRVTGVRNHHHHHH
Text: A truncated cDNA sequence of rat MASP1encoding the fragment corresponding to the amino acids 302-704 with a C-terminal His Tag and N-terminal Ig-kappa secretion signal (SEQ ID No: 4) was subcloned into the mammalian expression vector pcDNA3.1 (Invitrogen).
The MASP1 or MASP2 expression vectors were transfected into the HEK293 (ATCC No. CRL-1573) cell line using Lipofectamine LTX® Reagent (Thermo-Fischer), as described by the manufacturer. The mature form of the recombinant rat MASP1 and MASP2 proteases were secreted into the culture medium. The MASP1 and MASP2 proteins were purified from the conditioned media by affinity chromatography on Ni-NTA Superflow resin (Qiagen) as described by the manufacturer.
4.2 Biochemical Rat MASP1 Assay.
Recombinant rat MASP1 enzyme produced in the HEK 293 cells was diluted in the reaction buffer (50 mM HEPES pH 8,0; 100 mM NaCl; 0,01% CHAPS; 0.5 mM Gluthathione) to the concentration of 4 nM and 25 μl was transferred into each single well of 384-well white microtiter plate (Greiner Bio One 781075). 1 μl of the inhibitor compound solution (dissolved in DMSO, at the corresponding concentration) or pure DMSO as a control was added to the same wells. The enzymatic reaction was initiated by addition of 25 μl of 40 μM solution of the FRET substrate Dabcyl-[…]-Glu(Edans)-NH2; (Dabcyl-4-((4-(dimethylamino)phenyl)azo)benzoic acid; Edans-5-[(2-Aminoethyl) amino]naphthalene-1-sulfonyl; custom synthesis by Jerini Peptide Technologies, Berlin) in the reaction buffer. The microtiter plate was incubated for 60-120 min at the temperature of 32 C. The increase of fluorescence intensity was measured in appropriate fluorescence plate reader (e.g. TECAN Ultra) using excitation wavelength of 340 nm and emission wavelength of 490 nm. IC50 values were calculated from percentage of inhibition of rat […] activity as a function of test compound concentration.

[5] = test system: Human C3-DEPOSITION SERUM; test: C3 deposition assay, human serum on mannan-coated plates; type: biochemical; conditions: Average IC50, read-out: Human C3-DEPOSITION SERUM IC50
Outline: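 Plates coated overnight at 4° C with S. cerevisiae mannan (10 μg/mL, pH 9.6), blocked with 1% BSA in TBS 2 h at 37° C; washes in TBS/0.05% Tween 20/5 mM CaCl2. Antibodies diluted in wash buffer with 0.5% BSA. Colorimetric read-out at 450 nm.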

| Structure (SMILES) | pIC50 [1] | pIC50 [2] | pIC50 [3] | pIC50 [4] | pIC50 [5] |
| --- | --- | --- | --- | --- | --- |
| CC[C@H](C)[C@@H]1NC(=O)[C@@H]2CCCN2C(=O)[C@@H]2CCCN2C(=O)[C@H](CC(C)(C)C)NC(=O)[C@H](CO)NC(=O)[C@H](CCCNC(=N)N)NC(=O)[C@H](CO)NC(=O)[C@@H]2CSSC(C)(C)[C@H](NC1=O)C(=O)N[C@@H]([C@@H](C)CC)C(=O)N1CCC[C@H]1C(=O)N1CCC[C@H]1C(=O)N[C@@H]([C@@H](C)CC)C(=O)N2 [Example 58, N-{3-[(6S,9S,12S,15S,18R,21S,23aS,28aS,34S,37R,40S,42aS,47aS)-21,34,40-tri[(2S)-butan-2-yl]-6-(2,2-dimethylpropyl)-9,15-bis(hydroxymethyl)-48,48-dimethyl-5,8,11,14,17,20,23,28,33,36,39,42,47-tridecaoxotetratetracontahydro-1H,5H,28H-18,37-(methanodithiomethano)tetrapyrrolo[1,2-a:1′,2′-d:1″,2″-p:1′″,2′″-s][1,4,7,10,13,16,19,22,25,28,31,34,37]tridecaazacyclononatriacontin-12-yl]propyl}guanidine] (cyclo(CSRS[tBuAla]PPI[Pen]IPPI); disulfide 1-9) | 8.05 | 6.19 | 7.34 | 6.96 | 7.09 |
| CC[C@H](C)[C@@H]1NC(=O)CCCCCNC(=O)[C@H]([C@@H](C)CC)NC(=O)[C@H]2NC(=O)[C@H]([C@@H](C)CC)NC(=O)[C@@H]3CCCN3C(=O)[C@@H]3CCCN3C(=O)[C@H](CC(C)(C)C)NC(=O)[C@H](CO)NC(=O)[C@H](CCCNC(=N)N)NC(=O)[C@H](CO)NC(=O)[C@H](CSSC2(C)C)NC1=O [Example 52, N-{3-[(5aS,11S,14S,17S,20S,23R,26S,36S,39R,42S,44aS)-26,36,42-tri[(2S)-butan-2-yl]-11-(2,2-dimethylpropyl)-14,20-bis(hydroxymethyl)-45,45-dimethyl-5,10,13,16,19,22,25,28,35,38,41,44-dodecaoxodotetracontahydro-1H,5H-23,39-(methanodithiomethano)dipyrrolo[2,1-1:2′,1′-o][1,4,7,10,13,16,19,22,25,28,31,34]dodecaazacyclotetracontin-17-yl]propyl}guanidine] (cyclo([Ahx]ICSRS[tBuAla]PPI[Pen]I); disulfide 3-11) | 8.10 | 8.03 | 7.94 | 7.10 | 7.63 |
| CC[C@H](C)[C@@H]1NC(=O)CN(C)C(=O)CCCCCNC(=O)[C@@H]2CCCN2C(=O)[C@H]([C@@H](C)CC)NC(=O)[C@H]2NC(=O)[C@H]([C@@H](C)CC)NC(=O)[C@@H]3CCCN3C(=O)[C@@H]3CCCN3C(=O)[C@H](CC(C)(C)C)NC(=O)[C@H](CO)NC(=O)[C@H](CCCNC(=N)N)NC(=O)[C@H](CO)NC(=O)[C@H](CSSC2(C)C)NC1=O [Example 54, N-{3-[(6S,9S,12S,15S,18R,21S,33aS,39S,42R,45S,47aS,52aS)-21,39,45-tri[(2S)-butan-2-yl]-6-(2,2-dimethylpropyl)-9,15-bis(hydroxymethyl)-25,53,53-trimethyl-5,8,11,14,17,20,23,26,33,38,41,44,47,52-tetradecaoxopentacontahydro-1H,5H-18,42-(methanodithiomethano)tripyrrolo[2,1-c:2′,1′-o:2″,1″-r][1,4,7,10,13,16,19,22,25,28,31,34,37,40]tetradecaazacyclohexatetracontin-12-yl]propyl}guanidine] | 8.07 | 7.48 | 7.74 | 6.74 | 7.40 |
| CC[C@H](C)[C@@H]1NC(=O)CNC(=O)[C@@H](N)CCC(=O)NC[C@@H](C(N)=O)NC(=O)[C@H](CC(=O)O)NC(=O)[C@@H]2CCCN2C(=O)[C@H]([C@@H](C)CC)NC(=O)[C@H]2NC(=O)[C@H]([C@@H](C)CC)NC(=O)[C@@H]3C[C@@H]4CCCC[C@@H]4N3C(=O)[C@@H]3CCCN3C(=O)[C@H](CC(C)C)NC(=O)[C@H](CO)NC(=O)[C@H](CCCNC(=N)N)NC(=O)[C@H](CO)NC(=O)[C@H](CSSC2(C)C)NC1=O [Example 93] (H-EGICSRSLP[Oic]I[Pen]IPD[Dap]-NH2; lactam 1-16; disulfide 4-12) | 7.46 | 7.35 | 7.17 | 6.39 | 6.56 |
